{"source": "patent US11696924B2", "about": "“Combination therapy using PDK1 and PI3K inhibitors” (MEMORIAL SLOAN-KETTERING CANCER CENTER, priority 2015, dated 2023)", "key": {"pNDRG1 (T346)": {"system": "pNDRG1 (T346)", "test": "Western blot of NDRG1 phosphorylation (T346)", "type": "cell-based", "details": "4 h", "experimental": "A) SGK1 mRNA levels in breast cancer cell lines sensitive or resistant to BYL719 (n=27). B) SGK1 mRNA levels in PIK3CA-mutant breast cancer cell lines sensitive or resistant to BYL719. C) Western blot of SGK1, SGK2, SGK3 and phosphorylated NDRG1 in a panel of PIK3CA—mutant breast cancer cell lines sensitive or resistant to BYL719. D) Western blot for NDRG1 and phosphorylated NDRG1 (T346) in BYL719-sensitive and -resistant breast cancer cell lines treated with BYL719 (1 μM) for 4 h. […] P values are calculated using Student's t-test. Error bars are ±SEM.\nA) Dose-response curves from MDA-MB-361 cells transduced with pLenti7.3-LacZ or pLenti7.3-SGK1 (Δ60, S422D) treated with increasing concentrations of BYL719 for 6 days. B) Western blot analysis of LacZ and SGK1 MDA-MB-361 cells treated with BYL719 (1 μM) for 4 h. […] The DFG motif amino acids are indicated (D240, F241, G242). […] Hydrogen bonds are shown as dotted lines. […] L) IHC analysis of tumors from K collected at the end of the experiment. M) Top panel: growth curves of HCC1954 cells stably expressing doxycycline-inducible control (REN) or SGK1 knockdown treated with increasing concentrations of BYL719 for 6 days. Bottom panel: Western blot analysis of GFP-sorted control (REN) and SGK1 shRNA cells treated with BYL719 (1 μM) for 4 h. P values are calculated using Student's t-test. Error bars are ±SEM.\n(§1) Then, membranes were probed using specific antibodies."}, "HCC1954 cells [1]": {"system": "HCC1954 cells", "test": "cell viability, MTT assay", "type": "cell-based", "details": "HCC1954 shPDK1, 6 days", "experimental": "(§2) Cell viability was measures using the MTT assay. Briefly, 5000 cells were seeded in 96 well plates, treated for 6 days, and assayed using 0,25% MTT (Sigma) and 50 mM sodium succinate (Sigma) solutions during 3 h. Formazan crystals were dissolved with DMSO and absorbance was measured at 570 nm of wavelength."}, "JIMT1 cells": {"system": "JIMT1 cells", "test": "cell viability, MTT assay", "type": "cell-based", "details": "JIMT1 shPDK1, 6 days", "experimental": "as §2"}, "pAKT (S473, T308)": {"system": "pAKT (S473, T308)", "test": "Western blot of AKT phosphorylation", "type": "cell-based", "source_text": "(§3) For western blot analysis proteins were extracted in RIPA buffer supplemented with protease and phosphatase inhibitors (Roche). Protein lysates were separated using SDS-PAGE gels and transferred to a PVDF membrane. Then, membranes were probed using specific antibodies. PDK1, pAKT (S473), pAKT (T308), pS6K (T389), pS6 (S240/4), pS6 (235/6), p4EBP1 (S65), PARP, Actin, pRSK (S227), cleaved Caspase 3, pFOXO1/3 (T24/T32), SGK1, SGK2, SGK3, pNDRG1 (T346), NDRG1, Flag, HA, and phospho-RXRXX(S/T) (SEQ ID NO: 1) were from Cell Signaling Technology (CST)."}, "mTORC1": {"system": "mTORC1", "test": "Western blot of mTORC1 signaling (pS6K, pS6, p4EBP1)", "type": "cell-based", "source_text": "as §3"}, "HCC1954 cells [2]": {"system": "HCC1954 cells", "test": "apoptosis: PARP cleavage and caspase 3/7 activity", "type": "cell-based", "details": "HCC1954 shPDK1, BYL719 1 μM, long term", "description": "For Caspase 3/7 activity, the Caspase-Glo® 3/7 Assay kit from Promega was used following manufacturer's instructions. The caspase inhibitor zVAD-fmk was used to inhibit apoptosis in cells and was also obtained from Promega.\nas §1"}, "[3]": {"system": "cap-dependent translation", "test": "m7GTP pull down, cap-dependent translation", "type": "cell-based", "details": "HCC1954 shPDK1, BYL719 1 μM, 4 h", "experimental": "2 million cells were seeded in 10 cm plates and treated accordingly 12 hr after seeding. Lysates were prepared using m7GTP pull down buffer (50 mM Hepes, pH 7.4, 75 mM NaCl, 10 mM MgCl2, 1 mM DTT, 8 mM EGTA, 10 mM β-glycerophosphate, 0.5 mM Na3VO4, 0.5% Triton X-100) supplemented with protease and phosphatase inhibitors. Lysates were centrifuged at 13000 rpm for 10 min and supernatants were rotated for 2 h at 4° C. with 7-methyl-GTP-Sepharose or control Sepharose beads (Jena Bioscience). Beads were washed three times with m^7GTP pull down buffer, resuspended in Laemmli buffer, and associated proteins were detected by Western blot."}, "HCC1954 xenografts": {"system": "HCC1954 xenografts", "test": "HCC1954 in vivo xenograft", "design": "species or system mice", "experimental": "Animals were maintained and treated in accordance with Institutional Guidelines of Memorial Sloan Kettering Cancer Center (Protocol number 12-10-019). 5×10^6 cells in 1:1 PBS/Matrigel (Corning) were injected subcutaneously into six-week-old female athymic Foxn1^nu nude mice.\nWhen tumors reached a volume of ˜150 mm^3 mice were randomized, treated, and tumors were measured twice a week during a month. At least 10 tumors per group were used in all the studies. […] Tumors were harvested at the end of the experiment three hours after the last dosage, fixed in 4% formaldehyde in PBS, and paraffin-embedded. […] Primary staining was followed by 60 minutes incubation with biotinylated goat anti-rabbit IgG (Vector labs) 1:200. Blocker D, Streptavidin-HRP and DAB detection kit (Ventana Medical Systems) were used according to the manufacturer instructions."}, "FOXO3": {"system": "FOXO3", "test": "FOXO-dependent transcription (microarray, RT-PCR, immunofluorescence, luciferase reporter, ChIP-qPCR)", "type": "cell-based", "details": "HCC1954 and JIMT1, 1 μM, 4 h, vs DMSO", "procedure": "B) Enrichment plot for the FOXO3 signature in HCC1954 cells. C) Heat map showing changes in previously described FOXO3 targets.\nG) Luciferase reporter assay in HCC1954 cells stably transduced with the FOXO consensus motif reporter construct treated as indicated for 12 h (RLU, Relative light units). H) ChIP-qPCR assay of FOXO3A binding at TNFSF10A and IRS2 promoters in HCC1954 cells treated as indicated in F. P values are calculated using Student's t-test. Error bars are ±SEM.\nRNA was isolated from cells using the QIAGEN RNeasy kit. For microarray analysis, biotinylated cRNA was prepared according to the standard Illumina protocol. After fragmentation, cRNA was hybridized with Illumina GX HT12 Human Array. Slides were washed and stained in the Illumina instrument following manufactured protocol. Slides were scanned using Illumina Bead Array Reader. Data were analyzed using GenomeStudio software. No normalization and background correction are performed first, then quantile normalization and background correction are done.\nFor mRNA expression analysis, cDNA was prepared using the Bio-Rad cDNA synthesis kit. cDNA was amplified by quantitative PCR using SYBR Select Master Mix (Applied Biosystems) in the ViiA 7 Real-Time PCR system. All reactions were carried out in triplicate.\nLysed cells were sonicated on ice to yield 200-800 bp DNA fragments. […]"}, "AKT": {"system": "AKT", "test": "kinase activity of immunoprecipitated endogenous AKT", "type": "cell-based", "details": "HCC1954, 4 hr, Crosstide substrate", "experimental": "In vitro kinase activity of endogenous SGK1 and AKT was assayed by measuring [γ-32P] ATP incorporation into Crosstide substrate peptide [[…]] […] SGK1 and AKT were immunoprecipitated from HCC1954 cell line 4 hr after treatment. Immunoprecipitates were washed once with lysis buffer containing 500 mM NaCl, once with lysis buffer, and twice with Buffer A (50 mM Tris pH 7.5, 0.1 mM EGTA). Reactions were carried out in 40 μL total volume containing 0.1 mM [γ-32P] ATP (400-1000 cpm/pmol), 10 mM magnesium acetate, and 30 μM Crosstide peptide. Reactions were terminated by adding 10 μL […] EDTA. 40 μL of the reaction mix was spotted on P81 paper, which was immediately immersed into 50 mM ortophosphoric acid and washed several times. Papers were rinsed in acetone and air dried. Radioactivity was quantified by Cerenkov counting. One unit of enzyme activity was defined as the amount of enzyme that catalyzes incorporation of 1 nmol of [γ-32P] ATP into the substrate over one minute."}}, "note": "“Also recorded” adds a separate entry of the source.", "data": [{"smiles": "Cc1nc(NC(=O)N2CCC[C@H]2C(N)=O)sc1-c1ccnc(C(C)(C)C(F)(F)F)c1", "note": "[BYL719]", "values": [{"measurement": "NDRG1 phosphorylation (T346)", "setting": "pNDRG1 (T346); BYL719-resistant cell lines", "value": "maintain NDRG1 phosphorylation"}, {"measurement": "NDRG1 phosphorylation (T346)", "setting": "pNDRG1 (T346); BYL719-sensitive cell lines, 1 μM", "value": "decreased NDRG1 phosphorylation at T346"}, {"measurement": "cell viability in PDK1 knockdown cells", "setting": "HCC1954 cells [1]", "value": "decrease cell viability"}, {"measurement": "cell viability in PDK1 knockdown cells", "setting": "JIMT1 cells", "value": "decrease cell viability"}, {"measurement": "AKT phosphorylation / activity", "setting": "pAKT (S473, T308); BYL719-resistant cells (HCC1954, JIMT1), 1 μM, 4 h", "value": "reduced AKT phosphorylation (S473 and T308); also recorded: effectively suppressed AKT activity"}, {"measurement": "pAKT (S473) levels fully decreased", "setting": "pAKT (S473, T308); CAL-148 and CAL-51 cells, 1 μM, 4 h", "value": "fully decreases pAKT levels"}, {"measurement": "AKT phosphorylation", "setting": "pAKT (S473, T308); HCT116 PDPK1+/+ and PDPK1−/− cells", "value": "decreases AKT phosphorylation"}, {"measurement": "mTORC1 signaling", "setting": "mTORC1; BYL719-resistant cells (HCC1954, JIMT1), 4 h, BYL719 1 μM, GSK2334470 1 μM, SGK1-inh 10 μM", "value": "not downstream mTORC1 targets; also recorded: not mTORC1 signaling"}, {"measurement": "phosphorylation of mTORC1 downstream targets in PDK1 knockdown cells", "setting": "mTORC1; HCC1954 and JIMT1 shPDK1, BYL719 1 μM, 4 h", "value": "decreased the phosphorylation of the mTORC1 downstream targets"}, {"measurement": "mTORC1 signaling", "setting": "mTORC1; HCT116 PDPK1−/− cells", "value": "inhibits mTORC1"}, {"measurement": "mTORC1 signaling", "setting": "mTORC1; HCT116 parental cells", "value": "does not decrease mTORC1 signaling"}, {"measurement": "mTORC1 signaling", "setting": "mTORC1; MDA-MB-361 cells overexpressing SGK1, 1 μM, 4 h", "value": "maintained mTORC1 signaling"}, {"measurement": "AKT phosphorylation and mTORC1 signaling", "setting": "mTORC1; MDA-MB-361 parental cells, 1 μM, 4 h", "value": "decreased both AKT phosphorylation and mTORC1 signaling"}, {"measurement": "apoptosis markers in PDK1 knockdown cells", "setting": "HCC1954 cells [2]", "value": "induced PARP cleavage (FIG. 2C) and increased caspase 3/7 activity"}, {"measurement": "cap-dependent translation in PDK1 knockdown cells", "setting": "[3]", "value": "decreased cap-dependent translation"}, {"measurement": "S6 phosphorylation (S240/4) and 4EBP1 (T37/46) in tumors, IHC", "setting": "HCC1954 xenografts; HCC1954 shGFP vs shPDK1 xenografts", "value": "inhibited only in shPDK1 xenografts"}, {"measurement": "tumor growth", "setting": "HCC1954 xenografts; HCC1954 shGFP xenografts", "value": "modest delay in tumor growth"}, {"measurement": "tumor growth", "setting": "HCC1954 xenografts; HCC1954 shPDK1 xenografts", "value": "durable tumor shrinkage"}, {"measurement": "tumor growth", "setting": "HCC1954 xenografts; HCC1954 xenografts, BYL719 25 mg/kg daily p.o., GSK2334470 100 mg/kg i.p. 3 times/week, SGK1-inh 50 mg/kg daily p.o.", "value": "some antitumor activity"}, {"measurement": "pAKT (S473) in tumors, IHC", "setting": "HCC1954 xenografts; tumors collected at the end of the experiment", "value": "effectively suppressed AKT phosphorylation (S473); also recorded: sufficient to suppress pAKT"}, {"measurement": "changes in gene expression / transcriptomic profile", "setting": "FOXO3", "value": "modest"}, {"measurement": "endogenous AKT kinase activity", "setting": "AKT", "value": "completely abrogated"}]}]}
